Experimental data reported in the supplement of paper PMC13207355.
Where a name gives a salt, the structure may show the parent alone.

Assays:
Details in all cases: exposure time: 72 h
FT3469 [1] = normal neural stem cell line; assay: phenotypic distance (Euclidean, principal components) from DMSO controls (arbitrary units); higher = stronger morphological change
E28 [2] = patient-derived glioblastoma stem cells of classical subtype; assay: as above
E57 [3] = patient-derived glioblastoma stem cells of mesenchymal subtype; assay: as above
E31 [4] = patient-derived glioblastoma stem cells of proneural subtype; assay: as above
E34 [5] = patient-derived glioblastoma stem cells of proneural subtype; assay: as above
E21 [6] = patient-derived glioblastoma stem cells of mesenchymal subtype; assay: as above
E13 [7] = patient-derived glioblastoma stem cells of classical subtype; assay: as above
FT3469 [8] = assay: surviving fraction (nuclei count normalised to DMSO); higher = more cells surviving (less toxic)
E28 [9] = assay: as above
E57 [10] = assay: as above
E31 [11] = assay: as above
E34 [12] = assay: as above
E21 [13] = assay: as above
E13 [14] = assay: as above
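For phenotypic distance (Euclidean, principal components) from DMSO controls in this document: cell Painting imaging in 384-well plates, CellProfiler features reduced to at least 20 principal components, Euclidean distance versus same-plate DMSO vehicle wells (0.1% v/v), median over six images per well.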
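For surviving fraction (nuclei count normalised to DMSO) in this document: nuclei counted by high-content imaging of Hoechst-stained cells in laminin-coated 384-well plates, relative to 0.1% DMSO vehicle wells, with staurosporine as cell-death control.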

CC(C)C[C@H](NC(=O)[C@H](Cc1ccccc1)NC(=O)c1cnccn1)B(O)O [Bortezomib]
Details	phenotypic distance	surviving fraction
E13 [7], 4.11523 nM	16.9	–
E13 [7], 12.34567901 nM	2.3	–
E13 [7], 37.037 nM	17.1	–
E13 [7], 111.1111111 nM	12	–
E13 [7], 333.333 nM	14.2	–
E13 [7], 1000 nM	13.5	–
E13 [7], 3000 nM	21.9	–
E13 [14], 4.11523 nM	–	0.00185
E13 [14], 12.34567901 nM	–	0.551
E13 [14], 37.037 nM	–	0.000925
E13 [14], 111.1111111 nM	–	0.0074
E13 [14], 333.333 nM	–	0.000925
E13 [14], 1000 nM	–	0.00185
E13 [14], 3000 nM	–	0
E21 [6], 4.11523 nM	10.7	–
E21 [6], 12.34567901 nM	17.6	–
E21 [6], 37.037 nM	18.1	–
E21 [6], 111.1111111 nM	23.9	–
E21 [6], 333.333 nM	14.3	–
E21 [6], 1000 nM	18.7	–
E21 [6], 3000 nM	23.7	–
E21 [13], 4.11523 nM	–	0.00595
E21 [13], 12.34567901 nM	–	0.00198
E21 [13], 37.037 nM	–	0.000991
E21 [13], 111.1111111 nM	–	0.000991
E21 [13], 333.333 nM	–	0.00297
E21 [13], 1000 nM	–	0.00198
E21 [13], 3000 nM	–	0
E28 [2], 4.11523 nM	5.69	–
E28 [2], 12.34567901 nM	4.88	–
E28 [2], 37.037 nM	6.77	–
E28 [2], 111.1111111 nM	5.66	–
E28 [2], 333.333 nM	5.33	–
E28 [2], 1000 nM	6.17	–
E28 [2], 3000 nM	5.47	–
E28 [9], 4.11523 nM	–	0.0619
E28 [9], 12.34567901 nM	–	0.0854
E28 [9], 37.037 nM	–	0.0576
E28 [9], 111.1111111 nM	–	0.0896
E28 [9], 333.333 nM	–	0.0747
E28 [9], 1000 nM	–	0.0576
E28 [9], 3000 nM	–	0.105
E31 [4], 4.11523 nM	8.53	–
E31 [4], 12.34567901 nM	10.1	–
E31 [4], 37.037 nM	10.2	–
E31 [4], 111.1111111 nM	21.4	–
E31 [4], 333.333 nM	11.7	–
E31 [4], 1000 nM	17.1	–
E31 [4], 3000 nM	12.6	–
E31 [11], 4.11523 nM	–	0.00325
E31 [11], 12.34567901 nM	–	0.0114
E31 [11], 37.037 nM	–	0.00651
E31 [11], 111.1111111 nM	–	0
E31 [11], 333.333 nM	–	0.00163
E31 [11], 1000 nM	–	0
E31 [11], 3000 nM	–	0.00163
E34 [5], 4.11523 nM	10.2	–
E34 [5], 12.34567901 nM	9.58	–
E34 [5], 37.037 nM	13.4	–
E34 [5], 111.1111111 nM	13.5	–
E34 [5], 333.333 nM	13.9	–
E34 [5], 1000 nM	12.6	–
E34 [5], 3000 nM	12.6	–
E34 [12], 4.11523 nM	–	0.0594
E34 [12], 12.34567901 nM	–	0.0507
E34 [12], 37.037 nM	–	0.0385
E34 [12], 111.1111111 nM	–	0.0332
E34 [12], 333.333 nM	–	0.035
E34 [12], 1000 nM	–	0.0227
E34 [12], 3000 nM	–	0.0385
E57 [3], 4.11523 nM	10.4	–
E57 [3], 12.34567901 nM	15.6	–
E57 [3], 37.037 nM	11.2	–
E57 [3], 111.1111111 nM	10.8	–
E57 [3], 333.333 nM	12.5	–
E57 [3], 1000 nM	12.2	–
E57 [3], 3000 nM	9.88	–
E57 [10], 4.11523 nM	–	0.00967
E57 [10], 12.34567901 nM	–	0.00153
E57 [10], 37.037 nM	–	0.00662
E57 [10], 111.1111111 nM	–	0.00611
E57 [10], 333.333 nM	–	0.00255
E57 [10], 1000 nM	–	0.00305
E57 [10], 3000 nM	–	0.00611
FT3469 [1], 4.11523 nM	5.9	–
FT3469 [1], 12.34567901 nM	7.61	–
FT3469 [1], 37.037 nM	8.16	–
FT3469 [1], 111.1111111 nM	8	–
FT3469 [1], 333.333 nM	7.22	–
FT3469 [1], 1000 nM	8.26	–
FT3469 [1], 3000 nM	6	–
FT3469 [8], 4.11523 nM	–	0.207
FT3469 [8], 12.34567901 nM	–	0.193
FT3469 [8], 37.037 nM	–	0.233
FT3469 [8], 111.1111111 nM	–	0.161
FT3469 [8], 333.333 nM	–	0.158
FT3469 [8], 1000 nM	–	0.121
FT3469 [8], 3000 nM	–	0.104

Cc1c(-c2ccc(-c3ccccc3F)cc2)nc2ccc(F)cc2c1C(=O)O [Brequinar sodium salt hydrate]
Details	phenotypic distance	surviving fraction
E13 [7], 4.1 nM	0.5	–
E13 [7], 12.3 nM	0.844	–
E13 [7], 37 nM	0.761	–
E13 [7], 111.1 nM	1.8	–
E13 [7], 333.3 nM	4.41	–
E13 [7], 1000 nM	4.43	–
E13 [7], 3000 nM	5.02	–
E13 [14], 4.1 nM	–	1.01
E13 [14], 12.3 nM	–	1.08
E13 [14], 37 nM	–	1.03
E13 [14], 111.1 nM	–	0.858
E13 [14], 333.3 nM	–	0.726
E13 [14], 1000 nM	–	0.615
E13 [14], 3000 nM	–	0.471
E21 [6], 4.1 nM	0.972	–
E21 [6], 12.3 nM	0.391	–
E21 [6], 37 nM	1.22	–
E21 [6], 111.1 nM	0.607	–
E21 [6], 333.3 nM	1.48	–
E21 [6], 1000 nM	2.5	–
E21 [6], 3000 nM	3.68	–
E21 [13], 4.1 nM	–	0.951
E21 [13], 12.3 nM	–	1.04
E21 [13], 37 nM	–	0.918
E21 [13], 111.1 nM	–	0.817
E21 [13], 333.3 nM	–	0.699
E21 [13], 1000 nM	–	0.649
E21 [13], 3000 nM	–	0.444
E28 [2], 4.1 nM	1.07	–
E28 [2], 12.3 nM	0.503	–
E28 [2], 37 nM	0.823	–
E28 [2], 111.1 nM	1.12	–
E28 [2], 333.3 nM	1.2	–
E28 [2], 1000 nM	2.26	–
E28 [2], 3000 nM	2.28	–
E28 [9], 4.1 nM	–	1.13
E28 [9], 12.3 nM	–	1.03
E28 [9], 37 nM	–	0.963
E28 [9], 111.1 nM	–	0.807
E28 [9], 333.3 nM	–	0.606
E28 [9], 1000 nM	–	0.42
E28 [9], 3000 nM	–	0.344
E31 [4], 4.1 nM	0.556	–
E31 [4], 12.3 nM	0.921	–
E31 [4], 37 nM	0.734	–
E31 [4], 111.1 nM	0.725	–
E31 [4], 333.3 nM	2.59	–
E31 [4], 1000 nM	3.28	–
E31 [4], 3000 nM	3.43	–
E31 [11], 4.1 nM	–	1.1
E31 [11], 12.3 nM	–	1
E31 [11], 37 nM	–	0.96
E31 [11], 111.1 nM	–	1.13
E31 [11], 333.3 nM	–	0.724
E31 [11], 1000 nM	–	0.392
E31 [11], 3000 nM	–	0.407
E34 [5], 4.1 nM	0.701	–
E34 [5], 12.3 nM	0.581	–
E34 [5], 37 nM	0.513	–
E34 [5], 111.1 nM	0.804	–
E34 [5], 333.3 nM	1	–
E34 [5], 1000 nM	1.62	–
E34 [5], 3000 nM	2.87	–
E34 [12], 4.1 nM	–	0.811
E34 [12], 12.3 nM	–	0.864
E34 [12], 37 nM	–	0.96
E34 [12], 111.1 nM	–	1.01
E34 [12], 333.3 nM	–	0.909
E34 [12], 1000 nM	–	0.888
E34 [12], 3000 nM	–	0.794
E57 [3], 4.1 nM	1.62	–
E57 [3], 12.3 nM	0.514	–
E57 [3], 37 nM	1.88	–
E57 [3], 111.1 nM	3.44	–
E57 [3], 333.3 nM	5.23	–
E57 [3], 1000 nM	6.97	–
E57 [3], 3000 nM	6.84	–
E57 [10], 4.1 nM	–	0.969
E57 [10], 12.3 nM	–	0.999
E57 [10], 37 nM	–	0.871
E57 [10], 111.1 nM	–	0.67
E57 [10], 333.3 nM	–	0.458
E57 [10], 1000 nM	–	0.372
E57 [10], 3000 nM	–	0.325
FT3469 [1], 4.1 nM	0.696	–
FT3469 [1], 12.3 nM	0.439	–
FT3469 [1], 37 nM	0.863	–
FT3469 [1], 111.1 nM	0.612	–
FT3469 [1], 333.3 nM	1.17	–
FT3469 [1], 1000 nM	1.76	–
FT3469 [1], 3000 nM	1.88	–
FT3469 [8], 4.1 nM	–	0.883
FT3469 [8], 12.3 nM	–	0.941
FT3469 [8], 37 nM	–	0.996
FT3469 [8], 111.1 nM	–	1
FT3469 [8], 333.3 nM	–	0.858
FT3469 [8], 1000 nM	–	0.742
FT3469 [8], 3000 nM	–	0.65
